Marks after values point to notes of the source that are not given here.
system: p16-3MR mice; assay: ROC analysis of discriminatory power of circulating microRNAs; assay type: in vivo, mouse; details: serum, RT-qPCR, DOX vs PBS; symbol after the number = significance
Protocol: (§1) Statistical analysis was performed using Medcalc (version 18.2.1). Normal distribution was assessed using D'Agostino-Pearson test, where normality was accepted at p>0.05. One-way ANOVA together together with Student-Newman-Keuls test for all pairwise comparisons (post-hoc tests) was used to identify significant changes between groups (p<0.05). To assess the discriminatory power of individual microRNAs, receiver operating characteristic (ROC) analysis was applied. ROC curves were plotted using sensitivity (y-axis) and 1-specificity (x-axis) and the area under the ROC curve (AUC) was calculated. MicroRNAs with AUC-values of >0.7 were considered as good discriminators/biomarkers. MicroRNAs with AUC-values >0.8 were considered very good discriminators/biomarkers.
In order to assess the diagnostic power of circulating microRNAs for the exposure with senescence inducing substances (DOX) as well as the efficacy of senolytic treatment, ROC analysis was performed and the area-under-the-curve (AUC) was calculated. […] Table 23 below summarizes AUC values as well as 95% confidence intervals for 24 selected circulating microRNAs.

Substance | ROC Analysis AUC Senescence
miR-483-5p: circulating microRNA biomarker, SEQ ID No. 91 (AAGACGGGAGGAAAGAAGGGAG; expressed or natural sequence; listed as Homo sapiens) | 0.563°
miR-345-5p: circulating microRNA biomarker, SEQ ID No. 83 (GCUGACUCCUAGUCCAGGGCUC; expressed or natural sequence; listed as Homo sapiens) | 0.781*
miR-409-3p: circulating microRNA biomarker, SEQ ID No. 89 (GAAUGUUGCUCGGUGAACCCCU; expressed or natural sequence; listed as Homo sapiens) | 0.609°
miR-199b-5p: circulating microRNA biomarker, SEQ ID No. 82 (CCCAGUGUUUAGACUAUCUGUUC; expressed or natural sequence; listed as Homo sapiens) | 0.750+
miR-215-5p: circulating microRNA biomarker, SEQ ID No. 86 (AUGACCUAUGAAUUGACAGAC; expressed or natural sequence; listed as Homo sapiens) | 0.531°
miR-125a-5p: circulating microRNA biomarker, SEQ ID No. 90 (UCCCUGAGACCCUUUAACCUGUGA; expressed or natural sequence; listed as Homo sapiens) | 0.742+
miR-183-3p: circulating microRNA biomarker, SEQ ID No. 85 (GUGAAUUACCGAAGGGCCAUAA; expressed or natural sequence; listed as Homo sapiens) | 0.563°
miR-31-5p: circulating microRNA biomarker, SEQ ID No. 87 (AGGCAAGAUGCUGGCAUAGCU; expressed or natural sequence; listed as Homo sapiens) | 0.688+

same assay, conditions: serum, RT-qPCR, DOX/GCV vs DOX; symbol after the number = significance

Substance | ROC Analysis AUC Senolytic Treatment
miR-483-5p: circulating microRNA biomarker, SEQ ID No. 91 (AAGACGGGAGGAAAGAAGGGAG; expressed or natural sequence; listed as Homo sapiens) | 0.766*
miR-345-5p: circulating microRNA biomarker, SEQ ID No. 83 (GCUGACUCCUAGUCCAGGGCUC; expressed or natural sequence; listed as Homo sapiens) | 0.875*
miR-409-3p: circulating microRNA biomarker, SEQ ID No. 89 (GAAUGUUGCUCGGUGAACCCCU; expressed or natural sequence; listed as Homo sapiens) | 0.859*
miR-199b-5p: circulating microRNA biomarker, SEQ ID No. 82 (CCCAGUGUUUAGACUAUCUGUUC; expressed or natural sequence; listed as Homo sapiens) | 0.734+
miR-215-5p: circulating microRNA biomarker, SEQ ID No. 86 (AUGACCUAUGAAUUGACAGAC; expressed or natural sequence; listed as Homo sapiens) | 0.922*
miR-125a-5p: circulating microRNA biomarker, SEQ ID No. 90 (UCCCUGAGACCCUUUAACCUGUGA; expressed or natural sequence; listed as Homo sapiens) | 0.789*
miR-183-3p: circulating microRNA biomarker, SEQ ID No. 85 (GUGAAUUACCGAAGGGCCAUAA; expressed or natural sequence; listed as Homo sapiens) | 0.891*
miR-31-5p: circulating microRNA biomarker, SEQ ID No. 87 (AGGCAAGAUGCUGGCAUAGCU; expressed or natural sequence; listed as Homo sapiens) | 0.672°

system: p16-3MR mice; assay: RT-qPCR verification of serum circulating microRNA changes, one-way ANOVA; assay type: in vivo, mouse; details: independent of gender, in words
Protocol: p16-3MR (Demaria et al, 2014, Developmental Cell 31:722-733) mice were bred in house and maintained in the AALAC-accredited Buck Institute for Research on Aging (Novato, Calif.) animal facility. 10 to 12-week-old p16-3MR […] mice were used for experiments. Mice were divided in 4 groups and each group consisted of 8 animals, 5 female, and 3 male, respectively. In group A, control mice were injected with PBS. In group B, mice were treated with Ganciclovir (GCV) (Sigma-Aldrich) dissolved in PBS for 5 consecutive days. In group C, mice were treated with one dose of Doxorubicine hydrochloride (Sigma-Aldrich) dissolved in PBS. In group D, mice were first treated with Doxorubicine and then treated 10 days later with GCV. Mice were intraperitoneally injected with one dose of 10 mg/kg of Doxorubicine hydrochloride, and GCV was administered daily by intraperitoneal injections for 5 consecutive days at concentration of 25 mg/kg in PBS. 4 days after the last GCV dose, animals were euthanized with CO2 and blood was withdrawn immediately. Blood was then incubated for 30 min at room temperature and centrifuged at 3400×g for 10 min. Serum was carefully collected in a sterile tube without disturbing the cell pellet and stored at −80° C. for further experiments.
Total RNA extraction was performed from 200 μl of serum using the Qiagen miRNeasy extraction kit (Qiagen, Germany). RNA yield was quality checked for homogenous extraction efficiency and hemolysis on the basis qPCR amplification of spiked-in as well as hemolysis-responsive RNAs (Blondal et al). In total 2 μl total RNA were used for reverse transcription using the Exiqon Universal RT kit II (Exiqon, Denmark). The obtained cDNA samples were pre-diluted 1:40 and subsequently mixed with SYBR Green® Mix (Exiqon, Denmark) to achieve a 1:100 dilution. The mix was distributed to primer-coated 384-well plates containing dried primer pairs for 96 selected microRNA or quality control assays. QPCR amplification was performed on a Roche LightCycler 480 II, using the manufacturer's recommendation for annealing, extension and denaturation.
Raw Cq-values were computed using the 2nd derivative method. Melting curves were checked for peaks to ensure specificity of the amplification reactions. Cq-values were subsequently normalized using Spike-In controls as references, to reduce technical noise in the data.
as §1

Substance | regulation in serum after exposure to DOX compared to PBS
miR-345-5p: circulating microRNA biomarker, SEQ ID No. 83 (GCUGACUCCUAGUCCAGGGCUC; expressed or natural sequence; listed as Homo sapiens) | significantly (up- or down-regulated)
miR-199b-5p: circulating microRNA biomarker, SEQ ID No. 82 (CCCAGUGUUUAGACUAUCUGUUC; expressed or natural sequence; listed as Homo sapiens) | significantly (up- or down-regulated)

same assay, conditions: p<0.05, in words

Substance | change of serum level following senolytic treatment (DOX/GCV compared to DOX)
miR-483-5p: circulating microRNA biomarker, SEQ ID No. 91 (AAGACGGGAGGAAAGAAGGGAG; expressed or natural sequence; listed as Homo sapiens) | significantly changed
miR-409-3p: circulating microRNA biomarker, SEQ ID No. 89 (GAAUGUUGCUCGGUGAACCCCU; expressed or natural sequence; listed as Homo sapiens) | significantly changed
miR-215-5p: circulating microRNA biomarker, SEQ ID No. 86 (AUGACCUAUGAAUUGACAGAC; expressed or natural sequence; listed as Homo sapiens) | significantly changed
miR-125a-5p: circulating microRNA biomarker, SEQ ID No. 90 (UCCCUGAGACCCUUUAACCUGUGA; expressed or natural sequence; listed as Homo sapiens) | significantly changed
miR-183-3p: circulating microRNA biomarker, SEQ ID No. 85 (GUGAAUUACCGAAGGGCCAUAA; expressed or natural sequence; listed as Homo sapiens) | significantly changed
miR-31-5p: circulating microRNA biomarker, SEQ ID No. 87 (AGGCAAGAUGCUGGCAUAGCU; expressed or natural sequence; listed as Homo sapiens) | significantly changed

same assay, conditions: serum, DOX/GCV compared to DOX

Substance | One-way ANOVA Senolytic Treatment (DOX/GCV)
miR-483-5p: circulating microRNA biomarker, SEQ ID No. 91 (AAGACGGGAGGAAAGAAGGGAG; expressed or natural sequence; listed as Homo sapiens) | * (significant p < 0.05)
miR-345-5p: circulating microRNA biomarker, SEQ ID No. 83 (GCUGACUCCUAGUCCAGGGCUC; expressed or natural sequence; listed as Homo sapiens) | * (significant p < 0.05)
miR-409-3p: circulating microRNA biomarker, SEQ ID No. 89 (GAAUGUUGCUCGGUGAACCCCU; expressed or natural sequence; listed as Homo sapiens) | * (significant p < 0.05)
miR-199b-5p: circulating microRNA biomarker, SEQ ID No. 82 (CCCAGUGUUUAGACUAUCUGUUC; expressed or natural sequence; listed as Homo sapiens) | + (by trend p < 0.2)
miR-215-5p: circulating microRNA biomarker, SEQ ID No. 86 (AUGACCUAUGAAUUGACAGAC; expressed or natural sequence; listed as Homo sapiens) | * (significant p < 0.05)
miR-125a-5p: circulating microRNA biomarker, SEQ ID No. 90 (UCCCUGAGACCCUUUAACCUGUGA; expressed or natural sequence; listed as Homo sapiens) | * (significant p < 0.05)
miR-183-3p: circulating microRNA biomarker, SEQ ID No. 85 (GUGAAUUACCGAAGGGCCAUAA; expressed or natural sequence; listed as Homo sapiens) | * (significant p < 0.05)
miR-31-5p: circulating microRNA biomarker, SEQ ID No. 87 (AGGCAAGAUGCUGGCAUAGCU; expressed or natural sequence; listed as Homo sapiens) | ○

same assay, conditions: serum, n=8 per group, male and female mice

Substance | One-way ANOVA Senescence (DOX vs PBS)
miR-483-5p: circulating microRNA biomarker, SEQ ID No. 91 (AAGACGGGAGGAAAGAAGGGAG; expressed or natural sequence; listed as Homo sapiens) | ○
miR-345-5p: circulating microRNA biomarker, SEQ ID No. 83 (GCUGACUCCUAGUCCAGGGCUC; expressed or natural sequence; listed as Homo sapiens) | * (significant p < 0.05)
miR-409-3p: circulating microRNA biomarker, SEQ ID No. 89 (GAAUGUUGCUCGGUGAACCCCU; expressed or natural sequence; listed as Homo sapiens) | ○
miR-199b-5p: circulating microRNA biomarker, SEQ ID No. 82 (CCCAGUGUUUAGACUAUCUGUUC; expressed or natural sequence; listed as Homo sapiens) | * (significant p < 0.05)
miR-215-5p: circulating microRNA biomarker, SEQ ID No. 86 (AUGACCUAUGAAUUGACAGAC; expressed or natural sequence; listed as Homo sapiens) | ○
miR-125a-5p: circulating microRNA biomarker, SEQ ID No. 90 (UCCCUGAGACCCUUUAACCUGUGA; expressed or natural sequence; listed as Homo sapiens) | + (by trend p < 0.2)
miR-183-3p: circulating microRNA biomarker, SEQ ID No. 85 (GUGAAUUACCGAAGGGCCAUAA; expressed or natural sequence; listed as Homo sapiens) | ○
miR-31-5p: circulating microRNA biomarker, SEQ ID No. 87 (AGGCAAGAUGCUGGCAUAGCU; expressed or natural sequence; listed as Homo sapiens) | + (by trend p < 0.2)

— US11814680B2, “Biomarkers for detecting senescent cells” (Universität für Bodenkultur Wien, priority 2017, dated 2023)
